Test results as given in the supplement of paper PMC10307832.

Key:
Experiment in all cases: relative viability (nuclei count vs DMSO), 5 days (fraction); higher = more cells survive
[1] = compound: CN(C)CC1=CC(=CC=C1)N=C(C2=CC=CC=C2)C3=C(NC4=C3C=CC(=C4)C(=O)N(C)C)O + CC(C)C[C@H](NC(=O)[C@H](Cc1ccccc1)NC(=O)c1cnccn1)B(O)O [Bortezomib] (partner 0.002 µM)
Procedure, shortened: (§1)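 Lung cancer cell lines in 1536-well plates got either a single drug or a fixed anchor-drug dose together with five library-drug doses (not always all listed) in √10 steps, by pin tool, on the day after seeding. Nuclei were counted after 5 days, and relative viability is the treated-to-vehicle ratio of nuclei counts. Values are medians of duplicate plates.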

[2] = compound: CN(C)CC1=CC(=CC=C1)N=C(C2=CC=CC=C2)C3=C(NC4=C3C=CC(=C4)C(=O)N(C)C)O + CC1(C)CCC(c2ccc(Cl)cc2)=C(CN2CCN(c3ccc(C(=O)NS(=O)(=O)c4ccc(N[C@H](CCN5CCOCC5)CSc5ccccc5)c(S(=O)(=O)C(F)(F)F)c4)cc3)CC2)C1 [Navitoclax] (partner 0.5 µM)
Procedure, shortened: as §1

[3] = compound: CN(C)CC1=CC(=CC=C1)N=C(C2=CC=CC=C2)C3=C(NC4=C3C=CC(=C4)C(=O)N(C)C)O + CCNC(=O)c1noc(-c2cc(C(C)C)c(O)cc2O)c1-c1ccc(CN2CCOCC2)cc1 [Luminespib] (partner 0.01 µM)
Procedure, shortened: as §1

[4] = compound: CN(C)CC1=CC(=CC=C1)N=C(C2=CC=CC=C2)C3=C(NC4=C3C=CC(=C4)C(=O)N(C)C)O + Cc1nc(Nc2ncc(C(=O)Nc3c(C)cccc3Cl)s2)cc(N2CCN(CCO)CC2)n1 [Dasatinib] (partner 0.075 µM)
Procedure, shortened: as §1

Cell Line	relative viability ([1]; first compound 0.08 µM)	relative viability ([1]; first compound 0.253 µM)	relative viability ([1]; first compound 0.8 µM)	relative viability ([1]; first compound 2.53 µM)	relative viability ([1]; first compound 8 µM)	relative viability ([2]; first compound 0.08 µM)	relative viability ([2]; first compound 0.253 µM)	relative viability ([2]; first compound 0.8 µM)	relative viability ([2]; first compound 2.53 µM)	relative viability ([2]; first compound 8 µM)	relative viability ([3]; first compound 0.08 µM)	relative viability ([3]; first compound 0.253 µM)	relative viability ([3]; first compound 0.8 µM)	relative viability ([3]; first compound 2.53 µM)	relative viability ([3]; first compound 8 µM)	relative viability ([4]; first compound 0.08 µM)	relative viability ([4]; first compound 0.253 µM)	relative viability ([4]; first compound 0.8 µM)	relative viability ([4]; first compound 2.53 µM)	relative viability ([4]; first compound 8 µM)
LU99A	1.13	1.21	1.15	1.09	0.911	0.827	0.581	0.879	0.781	0.882	0.238	0.246	0.285	0.258	0.234	0.578	0.646	0.611	0.401	0.373
LXF-289	1	0.888	0.993	0.927	0.939	0.959	0.911	0.946	0.945	0.809	0.694	0.675	0.6	0.652	0.623	0.203	0.216	0.246	0.242	0.205
NCI-H23	1.08	1.02	1.18	0.951	0.833	0.9	0.911	0.884	0.99	0.732	0.21	0.203	0.196	0.242	0.243	0.739	0.933	0.916	0.823	0.849
NCI-H322M	1.25	1.14	1.19	1.16	1.26	1.18	1.13	1.07	1.06	1.15	0.808	0.864	0.62	0.707	0.532	0.253	0.266	0.251	0.247	0.252
NCI-H441	0.572	0.449	0.538	0.511	0.331	0.632	0.391	0.619	0.647	0.565	0.303	0.304	0.364	0.381	0.354	0.521	0.68	0.529	0.582	0.505
NCI-H460	1.22	1.05	1.1	0.974	1.06	1.05	1.13	1.07	1.05	1.05	0.0333	0.0284	0.0254	0.0282	0.0318	0.669	0.558	0.736	0.387	0.398
NCI-H520	0.593	0.455	0.651	0.658	0.552	1.04	1.23	1.07	1.05	0.953	0.218	0.197	0.239	0.221	0.236	0.189	0.197	0.183	0.162	0.165
NCI-H596	1.05	1.17	1.07	1.11	1.26	0.967	0.93	0.911	0.977	0.83	0.974	1.24	0.993	1.14	0.551	0.575	0.648	0.628	0.618	0.602
NCI-H647	1.02	1.01	1.01	0.846	0.776	1.15	0.962	1.34	0.916	0.976	0.103	0.133	0.227	0.199	0.184	0.201	0.235	0.173	0.195	0.111
NCI-H727	0.872	0.764	0.786	0.739	0.764	0.574	0.428	0.371	0.471	0.498	0.245	0.377	0.296	0.543	0.354	0.357	0.374	0.382	0.54	0.509
NCI-H838	0.792	0.8	0.916	0.757	0.73	1.22	1.16	1.2	1.07	0.985	0.386	0.355	0.254	0.331	0.341	0.304	0.304	0.247	0.281	0.284
NCI-H1355	1.24	1.26	1.11	1.28	1.08	1.01	0.87	0.836	0.93	0.866	0.687	0.713	0.735	0.764	0.66	0.776	0.776	0.538	0.82	0.737
NCI-H1437	0.462	0.63	0.615	0.482	0.56	1.2	1.08	1.09	1.06	1.12	1.12	1.14	1.2	1.06	1.2	0.393	0.402	0.392	0.336	0.416
NCI-H1650	0.181	0.22	0.231	0.202	0.222	1.23	1.16	1.3	1.15	1.08	0.194	0.202	0.227	0.199	0.186	0.286	0.383	0.351	0.376	0.335
NCI-H1651	0.959	0.984	0.957	0.794	0.932	1.11	1.11	1.13	1.11	0.934	0.892	0.782	0.894	0.639	0.87	0.414	0.459	0.443	0.284	0.386
NCI-H1666	0.865	0.945	0.989	0.976	0.816	0.983	1.14	1.02	1.07	1.1	1.02	1.02	1.08	1.01	1.02	0.826	0.836	0.907	0.747	0.843

Cell Line	relative viability ([1]; first compound 0.08 µM)	relative viability ([1]; first compound 0.253 µM)	relative viability ([1]; first compound 0.8 µM)	relative viability ([1]; first compound 2.53 µM)	relative viability ([1]; first compound 8 µM)	relative viability ([2]; first compound 0.08 µM)	relative viability ([2]; first compound 0.253 µM)	relative viability ([2]; first compound 0.8 µM)	relative viability ([2]; first compound 2.53 µM)	relative viability ([2]; first compound 8 µM)	relative viability ([3]; first compound 0.08 µM)	relative viability ([3]; first compound 0.253 µM)	relative viability ([3]; first compound 0.8 µM)	relative viability ([3]; first compound 2.53 µM)	relative viability ([3]; first compound 8 µM)	relative viability ([4]; first compound 0.08 µM)	relative viability ([4]; first compound 0.253 µM)	relative viability ([4]; first compound 0.8 µM)	relative viability ([4]; first compound 2.53 µM)	relative viability ([4]; first compound 8 µM)
NCI-H1734	0.954	0.868	0.92	0.815	0.78	0.821	0.836	0.889	0.844	0.644	0.206	0.168	0.164	0.25	0.174	0.473	0.46	0.441	0.394	0.39
NCI-H1755	0.888	0.932	0.93	0.817	0.972	1.02	1.01	0.998	0.972	0.961	0.472	0.413	0.422	0.351	0.454	0.487	0.45	0.374	0.402	0.348
NCI-H1792	0.641	0.911	0.906	0.933	0.911	0.606	0.594	0.573	0.61	0.662	0.501	0.453	0.386	0.452	0.385	0.903	0.856	0.851	0.646	0.598
NCI-H1915	0.976	1.02	0.985	0.923	0.956	0.819	0.75	0.782	0.791	0.805	0.745	0.745	0.811	0.836	0.667	0.365	0.369	0.318	0.323	0.292
NCI-H1975	0.444	0.381	0.319	0.326	0.381	1.07	1.06	0.989	1.08	1.06	0.22	0.197	0.0911	0.324	0.161	0.372	0.364	0.341	0.348	0.31
NCI-H1993	1.04	1.11	0.748	1.22	1.36	0.935	1.02	0.885	0.933	1.09	0.817	0.796	0.748	0.939	0.924	0.505	0.602	0.512	0.607	0.729
NCI-H2009	1.17	1.01	1.21	0.919	0.839	1.14	1.12	1.17	1.16	1.17	1.04	0.999	1.11	0.96	1.05	0.238	0.328	0.349	0.333	0.253
NCI-H2023	1.3	1.05	0.901	0.647	0.731	1.02	0.97	0.952	0.872	0.984	0.75	0.75	0.769	0.577	0.483	0.538	0.549	0.576	0.445	0.466
NCI-H2085	1.07	0.953	0.993	1.01	1.07	1.24	1.16	1.06	1.16	1.18	0.591	0.533	0.477	0.527	0.404	0.226	0.285	0.257	0.252	0.278
NCI-H2087	0.656	0.785	0.986	0.816	1.03	1.02	0.942	1.17	1.03	0.9	0.164	0.197	0.232	0.167	0.172	0.953	0.835	0.914	0.794	0.793
NCI-H2126	1.14	1.08	1.13	1.07	1.1	0.899	0.898	0.821	0.913	0.892	0.993	0.858	0.937	0.883	0.886	0.717	0.676	0.631	0.607	0.635
NCI-H2228	1.09	1.15	1.11	0.779	0.94	0.868	0.909	0.731	0.803	0.663	0.134	0.152	0.142	0.164	0.137	0.518	0.484	0.479	0.424	0.412
NCI-H2347	0.828	1.22	0.83	1.17	1.12	0.898	0.878	0.67	0.775	0.871	0.355	0.444	0.34	0.383	0.298	0.347	0.326	0.293	0.252	0.2
NCI-H2405	0.976	1.02	0.976	0.954	0.951	1.17	0.759	1.1	0.786	0.742	0.992	0.652	0.681	0.614	0.552	0.206	0.222	0.237	0.204	0.183
NCI-H3122	0.984	0.99	1.06	0.959	0.98	1.01	1.01	1.06	1.03	1.04	0.0882	0.0788	0.075	0.142	0.0907	0.686	0.867	0.846	0.844	0.951
